From patent US10696707B2, “Polyene macrolide derivative” (Shionogi & Co., Ltd., priority 2014, dated 2020) come the findings set out here.

SMILES strings stand for the structures. Values after ≈ are worked out from the molar mass of the structure shown. Where two headings read alike, the source gives them in different places.

What all share (assay type): cell-based
The subject of one assay is A. fumigatus ATCC204305. Nature of the assay: Antifungal activity test, MIC by broth microdilution (CLSI M38-A2). Here is the method: (§1) The Minimum Inhibitory Concentration (MIC) values of the present compound against yeast and filamentous fungi were determined by broth microdilution assay according to the Clinical Laboratory Standards Institute (CLSI) guidelines outlined in documents M27-A3 and M38-A2. The medium used in the assay consisted of RPMI1640 (with glutamine, without bicarbonate) with 2% glucose and 0.165 mol/L morpholinepropanesulfonic acid (MOPS) with pH adjusted to 7.0 using 1 mol/L sodium hydroxide. The present compound was dissolved in dimethyl sulfoxide (DMSO). A series of two-fold dilutions were prepared in DMSO, and then 2 μL of the diluted compound was added to each well in 96-well sterile plates. Each inoculum was prepared by diluting a suspension of Candida spp. or a conidia suspension of Aspergillus spp. suspended in sterile saline solution, and then 200 μL was added to each well to a predetermined concentration using RPMI/MOPS (final concentration for each solution: approximately 1×10^3 cells/mL and approximately 1×10^4 CFU/mL). Plates of Candida spp. and Aspergillus spp. were incubated at 35° C. for 24-48 hours. The MIC was defined as the lowest concentration giving 100% inhibition compared to the growth control.

The next assay has as its system A. flavus ATCC204304. The assay is described as above. On the procedure:
as §1

In a further assay the test system is C. albicans ATCC90028. Nature of the assay: Antifungal activity test, MIC by broth microdilution (CLSI M27-A3). On the procedure: as §1
The mark [1] stands for this setting: A. fumigatus ATCC204305, broth microdilution, 35° C., 24-48 hours, 100% inhibition.
[2] abbreviates: A. flavus ATCC204304, broth microdilution, 35° C., 24-48 hours, 100% inhibition.
[3] abbreviates: C. albicans ATCC90028, broth microdilution, 35° C., 24-48 hours, 100% inhibition.

Take `C[C@@H]1[C@H](O)[C@@H](C)/C=C/C=C/C=C/C=C/C=C/C=C/C=C/[C@H](O[C@@H]2O[C@H](C)[C@@H](O)[C@H](N)[C@@H]2O)C[C@@H]2O[C@](O)(C[C@@H](O)C[C@@H](O)[C@H](O)CC[C@@H](O)C[C@@H](O)CC(=O)O[C@H]1C)C[C@H](O)[C@H]2NC(=O)NC(CN)CO` (stereo partly drawn) [I-169]: the MIC worked out at 1 µg/mL (≈ 0.989 µM) in the assay with A. fumigatus ATCC204305 (setting [1]), 1 µg/mL (≈ 0.989 µM) against A. flavus ATCC204304 (setting [2]) and 0.25 µg/mL (≈ 0.247 µM) with C. albicans ATCC90028 (setting [3]).
`C[C@@H]1[C@H](O)[C@@H](C)/C=C/C=C/C=C/C=C/C=C/C=C/C=C/[C@H](O[C@@H]2O[C@H](C)[C@@H](O)[C@H](N)[C@@H]2O)C[C@@H]2O[C@](O)(C[C@@H](O)C[C@@H](O)[C@H](O)CC[C@@H](O)C[C@@H](O)CC(=O)O[C@H]1C)C[C@H](O)[C@H]2NC(=O)N1CC(N(C)C)C1` [I-189]: the minimum inhibitory concentration (MIC) against A. fumigatus ATCC204305 (setting [1]) stood at 0.5 µg/mL (≈ 0.49 µM); with A. flavus ATCC204304 (setting [2]), 0.5 µg/mL (≈ 0.49 µM); in the assay on C. albicans ATCC90028 (setting [3]), 0.25 µg/mL (≈ 0.245 µM).
Regarding `C[C@@H]1[C@H](O)[C@@H](C)/C=C/C=C/C=C/C=C/C=C/C=C/C=C/[C@H](O[C@@H]2O[C@H](C)[C@@H](O)[C@H](N)[C@@H]2O)C[C@@H]2O[C@](O)(C[C@@H](O)C[C@@H](O)[C@H](O)CC[C@@H](O)C[C@@H](O)CC(=O)O[C@H]1C)C[C@H](O)[C@H]2NC(=O)NCC1(CO)COC1` [I-193], the MIC against A. fumigatus ATCC204305 (setting [1]) stood at 1 µg/mL (≈ 0.963 µM); in the assay with A. flavus ATCC204304 (setting [2]), 0.5 µg/mL (≈ 0.482 µM); with C. albicans ATCC90028 (setting [3]), 0.25 µg/mL (≈ 0.241 µM).
Turning to `C[C@@H]1[C@H](O)[C@@H](C)/C=C/C=C/C=C/C=C/C=C/C=C/C=C/[C@H](O[C@@H]2O[C@H](C)[C@@H](O)[C@H](N)[C@@H]2O)C[C@@H]2O[C@](O)(C[C@@H](O)C[C@@H](O)[C@H](O)CC[C@@H](O)C[C@@H](O)CC(=O)O[C@H]1C)C[C@H](O)[C@H]2NC(=O)NCC1(C(=O)O)CC1` [I-202], the MIC was found to be 1 µg/mL (≈ 0.965 µM) against A. fumigatus ATCC204305 (setting [1]), 0.5 µg/mL (≈ 0.483 µM) in the assay on A. flavus ATCC204304 (setting [2]) and 0.5 µg/mL (≈ 0.483 µM) with C. albicans ATCC90028 (setting [3]).
Consider `C[C@@H]1[C@H](O)[C@@H](C)/C=C/C=C/C=C/C=C/C=C/C=C/C=C/[C@H](O[C@@H]2O[C@H](C)[C@@H](O)[C@H](N)[C@@H]2O)C[C@@H]2O[C@](O)(C[C@@H](O)C[C@@H](O)[C@H](O)CC[C@@H](O)C[C@@H](O)CC(=O)O[C@H]1C)C[C@H](O)[C@H]2NC(=O)NNC[C@H](O)CO` [I-227], for which the MIC came out at 1 µg/mL (≈ 0.974 µM) against A. fumigatus ATCC204305 (setting [1]), 0.5 µg/mL (≈ 0.487 µM) in the assay on A. flavus ATCC204304 (setting [2]) and 0.5 µg/mL (≈ 0.487 µM) in the assay on C. albicans ATCC90028 (setting [3]).
For `C[C@@H]1[C@H](O)[C@@H](C)/C=C/C=C/C=C/C=C/C=C/C=C/C=C/[C@H](O[C@@H]2O[C@H](C)[C@@H](O)[C@H](N)[C@@H]2O)C[C@@H]2O[C@](O)(C[C@@H](O)C[C@@H](O)[C@H](O)CC[C@@H](O)C[C@@H](O)CC(=O)O[C@H]1C)C[C@H](O)[C@H]2NC(=O)N1C[C@H](O)CC1C(=O)O` (stereo partly drawn) [I-230], the MIC against A. fumigatus ATCC204305 (setting [1]) turned out to be 1 µg/mL (≈ 0.95 µM); in the assay on A. flavus ATCC204304 (setting [2]) it was 0.5 µg/mL (≈ 0.475 µM); in the assay with C. albicans ATCC90028 (setting [3]), 0.5 µg/mL (≈ 0.475 µM).
As to `C[C@@H]1[C@H](O)[C@@H](C)/C=C/C=C/C=C/C=C/C=C/C=C/C=C/[C@H](O[C@@H]2O[C@H](C)[C@@H](O)[C@H](N)[C@@H]2O)C[C@@H]2O[C@](O)(C[C@@H](O)C[C@@H](O)[C@H](O)CC[C@@H](O)C[C@@H](O)CC(=O)O[C@H]1C)C[C@H](O)[C@H]2NC(=O)N1C[C@@H](O)[C@H](O)C1` [I-260], the MIC with A. fumigatus ATCC204305 (Aspergillus fumigatus, A. fumigatus ATCC204305, broth microdilution, 35° C., 24-48 hours, 100% inhibition, read-out: MIC) is 1 µg/mL (≈ 0.976 µM); in the assay with A. flavus ATCC204304 (Aspergillus flavus, A. flavus ATCC204304, broth microdilution, 35° C., 24-48 hours, 100% inhibition, read-out: MIC), 0.5 µg/mL (≈ 0.488 µM); in the assay on C. albicans ATCC90028 (Candida albicans, C. albicans ATCC90028, broth microdilution, 35° C., 24-48 hours, 100% inhibition, read-out: MIC), 0.5 µg/mL (≈ 0.488 µM).
Regarding `C[C@@H]1[C@H](O)[C@@H](C)/C=C/C=C/C=C/C=C/C=C/C=C/C=C/[C@H](O[C@@H]2O[C@H](C)[C@@H](O)[C@H](N)[C@@H]2O)C[C@@H]2O[C@](O)(C[C@@H](O)C[C@@H](O)[C@H](O)CC[C@@H](O)C[C@@H](O)CC(=O)O[C@H]1C)C[C@H](O)[C@H]2NC(=O)N(C)O` [I-266], the minimal inhibitory concentration (MIC) against A. fumigatus ATCC204305 (setting [1]) was determined as 0.5 µg/mL (≈ 0.516 µM); in the assay with A. flavus ATCC204304 (setting [2]) it was 0.5 µg/mL (≈ 0.516 µM); against C. albicans ATCC90028 (setting [3]), 0.25 µg/mL (≈ 0.258 µM).
Turning to `C[C@@H]1[C@H](O)[C@@H](C)/C=C/C=C/C=C/C=C/C=C/C=C/C=C/[C@H](O[C@@H]2O[C@H](C)[C@@H](O)[C@H](N)[C@@H]2O)C[C@@H]2O[C@](O)(C[C@@H](O)C[C@@H](O)[C@H](O)CC[C@@H](O)C[C@@H](O)CC(=O)O[C@H]1C)C[C@H](O)[C@H]2NC(=O)N(O)CC(N)=O` [I-273], the MIC with A. fumigatus ATCC204305 (Aspergillus fumigatus, ATCC204305) came to 0.5 µg/mL (≈ 0.494 µM); with A. flavus ATCC204304 (Aspergillus flavus, ATCC204304), 0.5 µg/mL (≈ 0.494 µM); in the assay with C. albicans ATCC90028 (Candida albicans, ATCC90028), 0.25 µg/mL (≈ 0.247 µM).
For `C[C@@H]1[C@H](O)[C@@H](C)/C=C/C=C/C=C/C=C/C=C/C=C/C=C/[C@H](O[C@@H]2O[C@H](C)[C@@H](O)[C@H](N)[C@@H]2O)C[C@@H]2O[C@](O)(C[C@@H](O)C[C@@H](O)[C@H](O)CC[C@@H](O)C[C@@H](O)CC(=O)O[C@H]1C)C[C@H](O)[C@H]2NC(=O)N(O)CCO` [I-274], the MIC against A. fumigatus ATCC204305 (setting [1]), against A. flavus ATCC204304 (setting [2]) and against C. albicans ATCC90028 (setting [3]) was 0.5 µg/mL (≈ 0.501 µM) throughout.
